Measured values as given in patent US8987313B2, “Inhibitors of cytochrome P450” (Gilead Sciences, Inc., priority 2010, dated 2015).
Read-outs that look alike come from different tables or passages of the source.

Biological target: CYP3A4 (Homo sapiens (Human), UniProt P08684)
Assay: CYP3A Inhibition Assay (human hepatic microsomes; midazolam 1'-hydroxylase and testosterone 6β-hydroxylase activities)
Conditions: pooled human hepatic microsomal fraction
Method: Pooled (n≧15 donors) human hepatic microsomal fraction was obtained from BD-Gentest (Woburn, Mass.) who also supplied hydroxy-terfenadine, 4′-hydroxydiclofenac and NADPH regenerating system. Ritonavir was prepared from commercial Norvir® oral solution (Abbott Laboratories, Abbott Park, Ill.). Other reagents were from Sigma-Aldrich (St. Louis, Mo.) and included terfenadine, fexofenadine, BRL 15572, diclofenac and mefenamic acid.
Incubations were performed in duplicate in 50 mM potassium phosphate buffer, pH 7.4 with NADPH regenerating system used as described by the manufacturer. […] The final substrate concentrations used were equal to the apparent Km values for the activities determined under the same conditions. Inhibitors were dissolved in DMSO, and the final concentration of DMSO, from both substrate and inhibitor vehicles, was 1% (v/v). Incubations were performed at 37° C. with shaking and were initiated by addition of substrate. Aliquots were then removed at […]. Samples were quenched by treatment with an acetonitrile, formic acid, water (94.8%/0.2%/5%, v/v/v) mixture containing internal standard. Precipitated protein was removed by centrifugation at 3000 rpm for […] and aliquots of the supernatant were then subjected to LC-MS analysis.
The LC-MS system consisted of a Waters Acquity UPLC, with a binary solvent manager and a refrigerated (8° C.) sample organizer and sample manager, interfaced to a Micromass Quattro Premier tandem mass spectrometer operating in electrospray ionization mode. The column was a Waters Acquity UPLC BEH C18 2.1×50 mm, […]. Mobile phases consisted of mixtures of acetonitrile, formic acid and water, the composition for mobile phase A being 1%/0.2%/98.8% (v/v/v) and that for mobile phase B being 94.8%/0.2%/5% (v/v/v). The injection volumes were 5 μL and the flow rate was 0.8 mL/min. Concentrations of metabolites were determined by reference to standard curves generated with authentic analytes under the same conditions as the incubations.
IC50 values (the concentration of inhibitor reducing CYP3A activity by 50%) were calculated by non-linear regression using GraphPad Prism 4.0 software and a sigmoidal model.
For midazolam hydroxylase determination the final concentrations of microsomal protein and […] substrate were 0.25 mg/mL and 2.5 μM, respectively, and the LC-MS internal standard was 1α-hydroxytriazolam. […] After incubation at 37° C. for 5 minutes, metabolic reactions were terminated by treatment with quench solution containing the appropriate internal standard and were subsequently centrifuged before aliquots of the supernatant were removed and diluted with 0.1% (v/v) formic acid for LC-MS analysis.
For LC-MS analysis the column was a Phenomenex Synergi Max RP 4 μm column (50×2.0 mm) and the injection volume was 5 μL. The MS/MS ion current metabolite/internal standard peak area ratios (PAR) were measured on an Applied Biosystems SciEx API4000 triple quadrupole mass spectrometer coupled to a Leap CTC PAL autosampler with a 20 μL loop and a Shimadzu LC pump with a 25 μL mixer.

[1] = read-out: CYP3A4 IC50 (μM) (midazolam), midazolam 1'-hydroxylase activity
[2] = read-out: CYP3A4 IC50 (μM) (testosterone), testosterone 6β-hydroxylase activity

CYP3A4, sequence (P08684 whole entry): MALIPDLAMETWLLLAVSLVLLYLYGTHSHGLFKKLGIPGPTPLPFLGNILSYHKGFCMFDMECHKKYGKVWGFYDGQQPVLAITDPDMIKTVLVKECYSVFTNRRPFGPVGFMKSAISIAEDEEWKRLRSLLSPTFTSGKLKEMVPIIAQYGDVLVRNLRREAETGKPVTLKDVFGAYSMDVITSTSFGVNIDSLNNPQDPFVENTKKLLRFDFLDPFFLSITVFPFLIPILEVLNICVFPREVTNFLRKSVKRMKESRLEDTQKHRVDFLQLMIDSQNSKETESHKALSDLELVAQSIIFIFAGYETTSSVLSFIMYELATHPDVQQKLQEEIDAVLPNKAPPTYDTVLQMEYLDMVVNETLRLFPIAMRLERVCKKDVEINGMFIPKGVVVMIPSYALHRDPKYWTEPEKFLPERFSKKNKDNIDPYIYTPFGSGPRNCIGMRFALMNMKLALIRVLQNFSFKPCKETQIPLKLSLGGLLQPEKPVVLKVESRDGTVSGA

For CC(C)c1nc(CN(C)C(=O)N2CCC[C@@H]2C(=O)N[C@H](CC[C@H](Cc2ccccc2)NC(=O)OCc2cncs2)Cc2ccccc2)cs1 [Compound 42], the IC50 [1] was 0.11 µM and the IC50 [2] was 0.25 µM.

With CC(C)c1nc(CN(C)C(=O)N2C[C@@H](N)C[C@H]2C(=O)N[C@H](CC[C@H](Cc2ccccc2)NC(=O)OCc2cncs2)Cc2ccccc2)cs1 [Compound 29] the IC50 [1] was 0.19 µM and the IC50 [2] was 0.31 µM.

Molecule CC(C)c1nc(CN(C)C(=O)N2C[C@@H](N(C)C)C[C@H]2C(=O)N[C@H](CC[C@H](Cc2ccccc2)NC(=O)OCc2cncs2)Cc2ccccc2)cs1 [Compound 31] has an IC50 [1] of 0.15 µM and an IC50 [2] of 0.33 µM.

CC(C)c1nc(CN(C)C(=O)NC2(C(=O)N[C@H](CC[C@H](Cc3ccccc3)NC(=O)OCc3cncs3)Cc3ccccc3)CCN(C)CC2)cs1 [Compound 21] gave an IC50 [1] of 0.19 µM and an IC50 [2] of 0.34 µM.

CC(C)c1nc(CN(C)C(=O)N2Cc3nc[nH]c3C[C@H]2C(=O)N[C@H](CC[C@H](Cc2ccccc2)NC(=O)OCc2cncs2)Cc2ccccc2)cs1 [Compound 49] gave an IC50 [1] of 0.19 µM and an IC50 [2] of 0.37 µM.

Work on CC(C)c1nc(CN(C)C(=O)N2CCC[C@H]2C(=O)N[C@H](CC[C@H](Cc2ccccc2)NC(=O)OCc2cncs2)Cc2ccccc2)cs1 [Compound 39] yielded an IC50 [1] of 0.13 µM and an IC50 [2] of 0.26 µM.

With CC(C)c1nc(CN(C)C(=O)N2C[C@H](O)C[C@H]2C(=O)N[C@H](CC[C@H](Cc2ccccc2)NC(=O)OCc2cncs2)Cc2ccccc2)cs1 [Compound 5] the IC50 [1] was 0.16 µM and the IC50 [2] was 0.23 µM.

In the case of CC(=O)N[C@H]1C[C@@H](C(=O)N[C@H](CC[C@H](Cc2ccccc2)NC(=O)OCc2cncs2)Cc2ccccc2)N(C(=O)N(C)Cc2csc(C(C)C)n2)C1 [Compound 36], the IC50 [1] is reported as less than 0.1 µM and the IC50 [2] is reported as 0.37 µM.

With CC(C)c1nc(CN(C)C(=O)N2CCN(C)C[C@H]2C(=O)N[C@H](CC[C@H](Cc2ccccc2)NC(=O)OCc2cncs2)Cc2ccccc2)cs1 [Compound 25] the IC50 [1] was 0.14 µM and the IC50 [2] was 0.3 µM.

Work on CC(C)c1nc(CN(C)C(=O)N2C[C@@H](O)C[C@H]2C(=O)N[C@H](CC[C@H](Cc2ccccc2)NC(=O)OCc2cncs2)Cc2ccccc2)cs1 [Compound 8] yielded an IC50 [1] of 0.17 µM and an IC50 [2] of 0.24 µM.

In the case of CC(C)c1nc(CN(C)C(=O)N2CS(=O)(=O)C[C@H]2C(=O)N[C@H](CC[C@H](Cc2ccccc2)NC(=O)OCc2cncs2)Cc2ccccc2)cs1 [Compound 18], the IC50 [1] is reported as 0.16 µM and the IC50 [2] is reported as 0.26 µM.

CN[C@H]1C[C@@H](C(=O)N[C@H](CC[C@H](Cc2ccccc2)NC(=O)OCc2cncs2)Cc2ccccc2)N(C(=O)N(C)Cc2csc(C(C)C)n2)C1 [Compound 30] showed an IC50 [1] of 0.17 µM and an IC50 [2] of 0.36 µM.

Molecule CC(C)c1nc(CN(C)C(=O)N2C[C@H](O)C[C@H]2C(=O)N[C@@H](CC[C@@H](Cc2ccccc2)NC(=O)OCc2cncs2)Cc2ccccc2)cs1 [Compound 11] has an IC50 [1] of 0.12 µM and an IC50 [2] of 0.3 µM.
